Results published in publication PMC10052609, “Cholinesterase Inhibitors from an Endophytic Fungus Aspergillus niveus Fv-er401: Metabolomics, Isolation and Molecular Docking” (Molecules, 2023).
Where “and” joins values, the source holds several entries; their conditions need not be identical. Identical values can stand only once. Like-named read-outs stand apart in the source and are kept apart here.

Key:
[1] = target: AChE (Homo sapiens, UniProt P22303); assay: Acetylcholinesterase inhibitory activity (Ellman's method); assay type: biochemical; conditions: acetylthiocholine substrate, 25 °C, read at 405 nm
Protocol: (§1) In total, 170 μL of Tris–HCl buffer (200 mM, pH 7.5) was added, then 20 μL of the tested compounds at different concentrations ([…]), and finally 20 μL of the enzyme solution (0.1 U mL1). […] In BChE and AChE assays, butyrylthiocholine iodide and acetylthiocholine were used as substrates, and DTNB was used as an indicator. MeOH was used to dissolve the tested samples. […] Blank tests were performed by replacing the enzyme (20 μL) with buffer and recording the absorbances.
(§2) Percentage inhibition was calculated as follows: %Inhibition=Reading B−Reading A/Reading B×100

[2] = target: BuChE (Homo sapiens, UniProt P06276); assay: Butyrylcholinesterase inhibitory activity (Ellman's method); assay type: biochemical; conditions: butyrylthiocholine iodide substrate, 25 °C, read at 405 nm
Protocol: as §1, §2

[3] = tested on: NCI-H460; conditions: NCI-H460 cell line; read-out: Cytotoxic activity IC50; cited from earlier work
[4] = tested on: MCF-7; conditions: MCF-7 cell line; read-out: Cytotoxic activity IC50; cited from earlier work
[5] = tested on: SF-268; conditions: SF-268 cell line; read-out: Cytotoxic activity IC50; cited from earlier work
[6] = tested on: MIA Pa Ca-2; conditions: MIA Pa Ca-2 cell line; read-out: Cytotoxic activity IC50; cited from earlier work
[7] = tested on: glutamate-induced excitotoxicity; conditions: low doses; cited from earlier work

Chain of BuChE (P06276 29-602): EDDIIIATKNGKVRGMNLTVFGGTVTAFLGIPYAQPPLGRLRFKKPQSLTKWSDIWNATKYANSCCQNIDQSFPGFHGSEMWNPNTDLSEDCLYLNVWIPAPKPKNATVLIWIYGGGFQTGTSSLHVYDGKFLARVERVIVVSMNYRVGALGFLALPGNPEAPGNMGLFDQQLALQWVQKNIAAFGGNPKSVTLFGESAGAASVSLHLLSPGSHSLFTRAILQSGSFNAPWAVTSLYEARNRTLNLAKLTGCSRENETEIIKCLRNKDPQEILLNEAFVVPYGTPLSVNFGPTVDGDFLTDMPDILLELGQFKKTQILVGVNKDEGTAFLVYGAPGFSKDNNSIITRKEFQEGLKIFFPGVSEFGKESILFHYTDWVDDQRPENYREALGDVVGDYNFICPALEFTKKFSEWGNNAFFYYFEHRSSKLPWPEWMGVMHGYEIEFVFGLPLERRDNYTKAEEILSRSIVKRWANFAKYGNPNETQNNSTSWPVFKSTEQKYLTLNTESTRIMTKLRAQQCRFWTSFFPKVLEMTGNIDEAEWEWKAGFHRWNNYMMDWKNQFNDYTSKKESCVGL
Chain of AChE (P22303 32-614): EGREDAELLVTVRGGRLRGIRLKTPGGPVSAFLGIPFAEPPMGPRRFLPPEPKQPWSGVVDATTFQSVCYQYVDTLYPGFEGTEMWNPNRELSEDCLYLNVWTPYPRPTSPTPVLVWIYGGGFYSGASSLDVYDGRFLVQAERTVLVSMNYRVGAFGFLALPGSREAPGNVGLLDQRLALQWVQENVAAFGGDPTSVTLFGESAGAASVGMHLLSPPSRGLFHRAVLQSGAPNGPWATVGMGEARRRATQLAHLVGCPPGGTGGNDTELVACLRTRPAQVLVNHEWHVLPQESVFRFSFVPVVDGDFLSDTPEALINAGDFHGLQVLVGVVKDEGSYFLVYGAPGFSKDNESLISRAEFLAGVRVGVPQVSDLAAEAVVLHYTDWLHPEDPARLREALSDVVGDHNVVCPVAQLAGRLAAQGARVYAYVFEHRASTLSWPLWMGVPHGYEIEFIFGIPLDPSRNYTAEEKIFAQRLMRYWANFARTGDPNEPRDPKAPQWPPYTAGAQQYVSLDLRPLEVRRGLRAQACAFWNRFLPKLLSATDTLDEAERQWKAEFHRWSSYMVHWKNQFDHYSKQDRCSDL

Structure (SMILES)	IC50 ([1]; Ellman's method, read-out: Acetylcholine Esterase IC50 (converted)) [µM]	IC50 ([2]; Ellman's method, read-out: Butyryl Choline Esterase IC50 (converted)) [µM]	IC50 [3] [µM]	IC50 [4] [µM]	IC50 [5] [µM]	IC50 [6] [µM]	IC50 ([1]; Acetylcholine Esterase IC50, Ellman's method) [µM]	IC50 ([2]; Butyryl Choline Esterase IC50, Ellman's method)	Neuroprotective activity against glutamate-induced excitotoxicity [7]
C=CC(C)(C)c1[nH]c2ccccc2c1C1=C(O)C(=O)C(c2c[nH]c3ccccc23)=C(CC=C(C)C)C1=O [Terrequinone A]	22.6	31.9	5.6	6.8	13.9	5.4			
CC1=C2C(=CO[C@H](C)[C@H]2C)C(O)=C(C(=O)O)C1=O [Citrinin]							20.2	32 µM and 30.1 µM	potential neuroprotective activity
